Reference: ChEMBL document CHEMBL4000165, “Chemosensitizing effect of Paris Saponin I on Camptothecin and 10-hydroxycamptothecin in lung cancer cells via p38 MAPK, ERK, and Akt signaling pathways” (Eur J Med Chem, 2017)
Activity calls are given as the source filed them. The rule behind the calls is not given here.

What was measured:
[1] = tested on: NCI-H1299; experiment: Cytotoxicity against human NCI-H1299 cells assessed as reduction in cell viability after 48 hrs by MTT assay; assay type: functional, cell-based; conditions: NCI-H1299, 48 h
[2] = tested on: NCI-H460; experiment: Cytotoxicity against human NCI-H460 cells assessed as reduction in cell viability after 48 hrs by MTT assay; assay type: functional, cell-based; conditions: NCI-H460, 48 h
[3] = tested on: NCI-H1299; experiment: Cytotoxicity against human NCI-H1299 cells assessed as reduction in cell viability by measuring combinantion index at 0.3 to 0.6 uM after 48 hrs in presence of CPT by MTT assay; assay type: functional
[4] = tested on: NCI-H446; experiment: Cytotoxicity against human NCI-H446 cells assessed as reduction in cell viability by measuring combinantion index at 0.3 to 0.6 uM after 48 hrs in presence of CPT by MTT assay; assay type: functional
[5] = tested on: NCI-H460; experiment: Cytotoxicity against human NCI-H460 cells assessed as reduction in cell viability at 0.3 to 0.6 uM after 48 hrs in presence of HCPT by MTT assay; assay type: functional, cell-based
[6] = tested on: NCI-H520; experiment: Cytotoxicity against human NCI-H520 cells assessed as reduction in cell viability at 0.3 to 0.6 uM after 48 hrs in presence of HCPT by MTT assay; assay type: functional, cell-based
[7] = tested on: NCI-H1299; experiment: Induction of apoptosis in human NCI-H1299 cells at 0.3 uM up to 20 mins in presence of CPT by acridine orange/ ethidium bromide staining based fluorescence microscopic method relative to control; assay type: functional
[8] = tested on: NCI-H1299; experiment: Induction of apoptosis in human NCI-H1299 cells at 0.3 uM up to 20 mins in presence of HCPT by acridine orange/ ethidium bromide staining based fluorescence microscopic method relative to control; assay type: functional
[9] = tested on: NCI-H460; experiment: Induction of apoptosis in human NCI-H460 cells at 0.6 uM up to 20 mins in presence of CPT by acridine orange/ ethidium bromide staining based fluorescence microscopic method relative to control; assay type: functional
[10] = tested on: NCI-H460; experiment: Induction of apoptosis in human NCI-H460 cells at 0.6 uM up to 20 mins in presence of HCPT by acridine orange/ ethidium bromide staining based fluorescence microscopic method relative to control; assay type: functional
[11] = tested on: NCI-H446; experiment: Induction of apoptosis in human NCI-H446 cells at 0.6 uM up to 20 mins in presence of CPT by acridine orange/ ethidium bromide staining based fluorescence microscopic method relative to control; assay type: functional
[12] = tested on: NCI-H1299; experiment: Induction of apoptosis in human NCI-H1299 cells at 0.3 uM after 24 to 48 hrs by Annexin-V FITC/propidium iodide staining based flow cytometry; assay type: functional, cell-based
[13] = tested on: NCI-H446; experiment: Induction of apoptosis in human NCI-H446 cells at 0.6 uM after 24 to 48 hrs by Annexin-V FITC/propidium iodide staining based flow cytometry; assay type: functional, cell-based
[14] = tested on: NCI-H1299; experiment: Induction of apoptosis in human NCI-H1299 cells assessed as increase in total apoptotic cells at 0.3 uM after 48 hrs in presence of CPT by Annexin-V FITC/propidium iodide staining based flow cytometry; assay type: functional, cell-based
[15] = tested on: NCI-H1299; experiment: Induction of apoptosis in human NCI-H1299 cells assessed as increase in pro-apoptotic cells at 0.3 uM after 48 hrs in presence of HCPT by Annexin-V FITC/propidium iodide staining based flow cytometry; assay type: functional, cell-based
[16] = tested on: NCI-H446; experiment: Induction of apoptosis in human NCI-H446 cells at 0.6 uM in presence of HCPT by Annexin-V FITC/propidium iodide staining based flow cytometry; assay type: functional, cell-based; conditions: TDE = time-dependent effect
[17] = tested on: NCI-H446; experiment: Induction of apoptosis in human NCI-H446 cells assessed as activation of caspase-3/7 at 0.6 uM after 48 hrs by luciferase reporter gene assay; assay type: functional, cell-based
[18] = tested on: NCI-H1299; experiment: Induction of apoptosis in human NCI-H1299 cells assessed as activation of caspase-3/7 at 0.3 uM after 48 hrs in presence of CPT by luciferase reporter gene assay; assay type: functional, cell-based
[19] = tested on: NCI-H446; experiment: Induction of apoptosis in human NCI-H446 cells assessed as activation of caspase-3/7 at 0.6 uM after 48 hrs in presence of CPT by luciferase reporter gene assay; assay type: functional, cell-based
[20] = tested on: NCI-H460; experiment: Induction of apoptosis in human NCI-H460 cells assessed as activation of caspase-3/7 at 0.6 uM after 48 hrs in presence of CPT by luciferase reporter gene assay; assay type: functional, cell-based
[21] = tested on: NCI-H1299; experiment: Induction of apoptosis in human NCI-H1299 cells assessed as increase in caspase-9 expression at 0.3 uM in presence of CPT by Western blot method; assay type: functional, cell-based
[22] = tested on: NCI-H1299; experiment: Induction of apoptosis in human NCI-H1299 cells assessed as increase in caspase-9 expression at 0.3 uM in presence of HCPT by Western blot method; assay type: functional, cell-based
[23] = tested on: NCI-H460; experiment: Induction of apoptosis in human NCI-H460 cells assessed as increase in caspase-9 expression at 0.6 uM in presence of HCPT by Western blot method; assay type: functional, cell-based
[24] = tested on: NCI-H446; experiment: Induction of apoptosis in human NCI-H446 cells assessed as increase in caspase-9 expression at 0.6 uM in presence of HCPT by Western blot method; assay type: functional, cell-based
[25] = tested on: NCI-H446; experiment: Induction of apoptosis in human NCI-H446 cells assessed as increase in cytochrome-C expression at 0.6 uM in presence of CPT by Western blot method; assay type: functional, cell-based
[26] = tested on: NCI-H446; experiment: Induction of apoptosis in human NCI-H446 cells assessed as downregulation of Bcl2 expression at 0.6 uM in presence of CPT by Western blot method; assay type: functional, cell-based
[27] = tested on: NCI-H1299; experiment: Decrease in p38 MAPK protein expression in human NCI-H1299 cells at 0.3 uM in presence of CPT by Western blot method; assay type: functional, cell-based
[28] = target: T1, MAP kinase p38 (Homo sapiens) (UniProt O15264+Q15759+Q16539+P53778); experiment: Increase in p38 MAPK phosphorylation in human NCI-H1299 cells at 0.3 uM in presence of CPT by Western blot method; assay type: cell-based
[29] = tested on: NCI-H1299; experiment: Effect on ERK1/2 protein expression in human NCI-H1299 cells at 0.3 uM in presence of CPT by Western blot method; assay type: functional, cell-based
[30] = species on record: Homo sapiens; experiment: Decrease in Akt phosphorylation in human NCI-H460 cells at 0.6 uM in presence of HCPT by Western blot method; assay type: cell-based
[31] = target: T1, MAP kinase p38 (Homo sapiens); experiment: Increase in p38 MAPK phosphorylation in human NCI-H460 cells at 0.6 uM in presence of CPT by Western blot method; assay type: cell-based
[32] = target: T1, MAP kinase p38 (Homo sapiens); experiment: Increase in p38 MAPK phosphorylation in human NCI-H460 cells at 0.6 uM in presence of HCPT by Western blot method; assay type: cell-based
[33] = target: c-Jun N-terminal kinase, JNK (Homo sapiens) (UniProt P45983+P53779+P45984); experiment: Increase in JNK phosphorylation in human NCI-H460 cells at 0.6 uM in presence of CPT by Western blot method; assay type: cell-based
[34] = species on record: Homo sapiens; experiment: Effect on Akt phosphorylation in human NCI-H446 cells at 0.6 uM in presence of CPT by Western blot method; assay type: cell-based
[35] = target: T1, MAP kinase p38 (Homo sapiens); experiment: Effect on p38 MAPK phosphorylation in human NCI-H446 cells at 0.6 uM in presence of CPT by Western blot method; assay type: cell-based

SMILES: C[C@@H]1CC[C@@]2(OC1)O[C@H]1C[C@H]3[C@@H]4CC=C5C[C@@H](O[C@@H]6O[C@H](CO)[C@@H](O[C@@H]7O[C@@H](CO)[C@H](O)[C@H]7O)[C@H](O)[C@H]6O[C@@H]6O[C@@H](C)[C@H](O)[C@@H](O)[C@H]6O)CC[C@]5(C)[C@H]4CC[C@]3(C)[C@H]1[C@@H]2C
- IC50 [1]: < 1000 nM
- IC50 [2]: < 1000 nM
- CI [3]: <1
- CI [4]: <1
- Activity [5]: Active
- Activity [6]: Active
- fold change (FC) [7]: 2
- fold change (FC) [8]: 2
- fold change (FC) [9]: 2
- fold change (FC) [10]: 2
- fold change (FC) [11]: 2
- Activity [12]: Active
- Activity [13]: Active
- Activity [14]: Active
- Activity [15]: Active
- Activity [16]: Tde
- Activity [17]: inactive
- Activity [18]: Active
- Activity [19]: Active
- Activity [20]: Active
- Activity [21]: Active
- Activity [22]: Active
- Activity [23]: Active
- Activity [24]: Active
- Activity [25]: Active
- Activity [26]: Active
- Activity [27]: Active
- Activity [28]: Active
- Activity [29]: inactive
- Activity [30]: Active
- Activity [31]: Active
- Activity [32]: Active
- Activity [33]: Active
- Activity [34]: Active
- Activity [35]: inactive
